Patent US20260167637A1, “NLRP3 INFLAMMASOME INHIBITOR AND USE THEREOF” (TransThera Sciences (Nanjing), Inc., priority 2022, published 2026)

Biological target: T1, THP-1 cell NLRP3 (Homo sapiens, UniProt Q96P20)
T1 construct: endogenous in cells; host or cells: THP-1 cells, PMA-differentiated, stimulated with LPS and nigericin
Assay: Inhibitory activity against cell NLRP3 inflammasomes in THP-1 cells (LPS + nigericin, ELISA of supernatant)
Type: cell-based
Conditions: PMA-differentiated THP-1 cells, LPS 500 ng/mL 3 h, compound 1 h, nigericin 30 min; human IL-10 (so in the source) in supernatant by ELISA
Protocol: Experimental Example 1: Assay for Inhibitory Activity of Compounds Disclosed Herein Against Cell NLRP3 Inflammasomes
Test substances: The compounds of the present disclosure, prepared according to the methods described in the examples.
THP-1 is an immortalized human […] cell line.
Instrument: microplate reader (made by PE)
Assay Method: 1. THP-1 cells were cultured in 1640 complete medium (500 mL of 1640+56 mL of FBS+560 μL of 1000×P/S+2 μL of mercaptoethanol), and cells at passages 3-20 were used.
2. Culture plate coating: 100 μL of polylysine solution was added to a 96-well cell culture plate. After 30 min of incubation at 37° C., the solution was discarded, and the plate was washed with PBS twice for later use.
3. Induction of THP-1 differentiation: THP-1 cells were resuspended in an appropriate amount of complete medium containing 10 ng/mL PMA to form a cell suspension with a density of 5×10^5 cells/mL. The suspension was added to the 96-well plate at 100 μL/well, and the plate was incubated overnight in a 37° C. carbon dioxide cell incubator for 16 h.
4. Stimulation of THP-1: • a. Serum-free THP-1 culture medium containing LPS was added, with the final concentration being 500 ng/mL. The plate was incubated in a 37° C. carbon dioxide cell incubator for 3 h. • b. Mother liquors of the compounds to be tested with gradient concentrations were prepared with DMSO, added to the cells, and well mixed. Dilution was finally performed in a 1:1000 ratio. The plate was incubated in a 37° C. carbon dioxide cell incubator for 1 h. • c. Nigericin was added to each well, with the final concentration being […]. The plate was incubated in a carbon dioxide cell incubator at 37° C. for 30 min. • d. The medium in the wells was transferred to a new culture plate, and after 5 min of centrifugation at 3000 rpm, the supernatant was transferred to a new 96-well plate. • e. The content of human […] in the collected cell culture supernatant samples was determined with a commercial ELISA kit by following the instructions.

T1 sequence (Q96P20 whole entry): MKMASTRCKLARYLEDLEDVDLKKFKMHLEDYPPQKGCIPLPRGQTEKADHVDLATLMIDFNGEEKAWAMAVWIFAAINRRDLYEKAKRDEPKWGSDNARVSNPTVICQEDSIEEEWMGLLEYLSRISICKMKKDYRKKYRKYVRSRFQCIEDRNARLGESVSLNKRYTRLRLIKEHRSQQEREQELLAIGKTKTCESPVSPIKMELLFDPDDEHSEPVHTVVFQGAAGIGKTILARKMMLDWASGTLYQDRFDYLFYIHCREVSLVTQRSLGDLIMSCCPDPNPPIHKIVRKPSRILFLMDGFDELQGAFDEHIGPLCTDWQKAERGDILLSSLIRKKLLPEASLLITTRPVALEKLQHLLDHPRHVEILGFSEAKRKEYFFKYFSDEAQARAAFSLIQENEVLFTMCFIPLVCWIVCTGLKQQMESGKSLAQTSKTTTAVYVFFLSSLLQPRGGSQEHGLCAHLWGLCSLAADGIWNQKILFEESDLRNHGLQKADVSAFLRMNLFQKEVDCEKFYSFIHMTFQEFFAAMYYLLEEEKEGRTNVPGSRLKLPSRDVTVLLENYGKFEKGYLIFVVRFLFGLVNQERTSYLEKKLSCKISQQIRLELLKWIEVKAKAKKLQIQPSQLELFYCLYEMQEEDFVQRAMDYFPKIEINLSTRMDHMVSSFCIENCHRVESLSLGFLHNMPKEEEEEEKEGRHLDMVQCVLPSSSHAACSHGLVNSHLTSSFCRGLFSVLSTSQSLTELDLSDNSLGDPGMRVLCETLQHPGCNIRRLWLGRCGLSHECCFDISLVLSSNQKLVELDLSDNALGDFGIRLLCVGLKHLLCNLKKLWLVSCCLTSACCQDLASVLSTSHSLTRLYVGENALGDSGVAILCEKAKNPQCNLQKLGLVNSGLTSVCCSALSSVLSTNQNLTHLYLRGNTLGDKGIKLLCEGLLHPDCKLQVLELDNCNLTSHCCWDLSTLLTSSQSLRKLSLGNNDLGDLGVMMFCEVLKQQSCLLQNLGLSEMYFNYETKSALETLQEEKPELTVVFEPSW

Row | SMILES | IC50 [nM]
1 | CC#Cc1ccc(-c2nnc(N[C@@H]3CCCN(CCO)C3)c(=O)n2C)c(O)c1 [Compound 33, (R)-3-(2-hydroxy-4-(prop-1-yn-1-yl)phenyl)-6-((1-(2-hydroxyethyl)piperidin-3-yl)amino)-4-methyl-1,2,4-triazin-5(4H)-one] | 11.5
2 | CC#Cc1ccc(-c2nnc(N[C@@H]3CCCN(CCCO)C3)cc2C)c(O)c1 [Compound 35, (R)-2-(6-((1-(3-hydroxypropyl)piperidin-3-yl)amino)-4-methylpyridazin-3-yl)-5-(prop-1-yn-1-yl)phenol] | 3.3
3 | CC#Cc1ccc(-c2nnc(N[C@@H]3CCCN(CC(C)(C)O)C3)cc2C)c(O)c1 [Compound 36, (R)-2-(6-((1-(2-hydroxy-2-methylpropyl)piperidin-3-yl)amino)-4-methylpyridazin-3-yl)-5-(prop-1-yn-1-yl)phenol] | 12.7
4 | CC#Cc1ccc(-c2nnc(N[C@@H]3CCCN(C(C)CO)C3)cc2C)c(O)c1 (stereo partly drawn) [Compound 37, 2-(6-(((3R)-1-(1-hydroxypropan-2-yl)piperidin-3-yl)amino)-4-methylpyridazin-3-yl)-5-(prop-1-yn-1-yl)phenol] | 0.8
5 | Cc1cc(N[C@@H]2CCCN(C)C2)nnc1-c1ccc(C=C(F)F)cc1O [Compound 39, (R)-5-(2,2-difluorovinyl)-2-(4-methyl-6-((1-methylpiperidin-3-yl)amino)pyridazin-3-yl) phenol] | 0.3
6 | CC#Cc1ccc(-c2nnc(N[C@@H]3CCCN(C)C3)n3nccc23)c(O)c1 [Compound 40, (R)-2-(7-((1-methylpiperidin-3-yl)amino)pyrazolo[1,5-d][1,2,4]triazin-4-yl)-5-(prop-1-yn-1-yl)phenol] | 12.8
7 | C#Cc1cc(C)c(-c2ccc(N[C@@H]3CCCN(C)C3)nn2)c(O)c1 [Compound 41, (R)-5-ethynyl-3-methyl-2-(6-((1-methylpiperidin-3-yl)amino)pyridazin-3-yl)phenol] | 0.3
8 | [2H]C([2H])([2H])N1CCC[C@@H](Nc2nnc(-c3ccc(C#C)cc3O)c(C3CC3)n2)C1 [Compound 87, (R)-2-(5-cyclopropyl-3-((1-(methyl-d3)piperidin-3-yl)amino)-1,2,4-triazin-6-yl)-5-ethynylphenol] | 0.7
9 | C#Cc1ccc(-c2nnc(N[C@@H]3CCCN(CC)C3)nc2C)c(O)c1 [Compound 91, (R)-2-(3-((1-ethylpiperidin-3-yl)amino)-5-methyl-1,2,4-triazin-6-yl)-5-ethynylphenol] | 0.2
10 | C#Cc1ccc(-c2nnc(N[C@@H]3CCCN(CC)C3)nc2C2CC2)c(O)c1 [Compound 92, (R)-2-(5-cyclopropyl-3-((1-ethylpiperidin-3-yl)amino)-1,2,4-triazin-6-yl)-5-ethynylphenol] | 0.5
11 | C#Cc1ccc(-c2nnc(N[C@@H]3CCCN(C4CC4)C3)cc2C)c(O)c1 [Compound 94, (R)-2-(6-((1-cyclopropylpiperidin-3-yl)amino)-4-methylpyridazin-3-yl)-5-ethynylphenol] | 0.3
12 | C#Cc1ccc(-c2nnc(N[C@@H]3CCCN(C4CC4)C3)cc2C2CC2)c(O)c1 [Compound 95, (R)-2-(4-cyclopropyl-6-((1-cyclopropylpiperidin-3-yl)amino)pyridazin-3-yl)-5-ethynylphenol] | 0.4
13 | C#Cc1ccc(-c2nnc(N[C@@H]3CCCN(C4CC4)C3)nc2C)c(O)c1 [Compound 96, (R)-2-(3-((1-cyclopropylpiperidin-3-yl)amino)-5-methyl-1,2,4-triazin-6-yl)-5-ethynylphenol] | 0.5
14 | C#Cc1ccc(-c2nnc(N[C@@H]3CCCN(C4CC4)C3)nc2C2CC2)c(O)c1 [Compound 97, (R)-2-(5-cyclopropyl-3-((1-cyclopropylpiperidin-3-yl)amino)-1,2,4-triazin-6-yl)-5-ethynylphenol] | 1
15 | C#Cc1ccc(-c2nnc(N[C@@H]3CCCN(C4CC4)C3)c(=O)n2C)c(O)c1 [Compound 98, (R)-6-((1-cyclopropylpiperidin-3-yl)amino)-3-(4-ethynyl-2-hydroxyphenyl)-4-methyl-1,2,4-triazin-5(4H)-one] | 5
